From PMC5218480 (PLoS ONE, 2017)

System: MV-4-11 cells
Experiment: Gene expression microarray analysis (Affymetrix PrimeView) and GSEA
Assay type: cell-based, human
Design: RFU PODN (11730768_x_at) / Fold change /veh PODN (11730768_x_at) / RFU LINC00158 (11744669_a_at) / Fold change /veh LINC00158 (11744669_a_at) / RFU DUSP10 (11751237_a_at) / Fold change /veh DUSP10 (11751237_a_at) / RFU ID3 (11757404_x_at) / Fold change /veh ID3 (11757404_x_at) / RFU PLEKHG5 (11737974_s_at) / Fold change /veh PLEKHG5 (11737974_s_at) / RFU LRRC4B (11730491_at) / Fold change /veh LRRC4B (11730491_at) / RFU GIMAP4 (11747438_a_at) / Fold change /veh GIMAP4 (11747438_a_at) / RFU KRT8 (11758183_x_at) / Fold change /veh KRT8 (11758183_x_at) / RFU CNN1 (11734310_a_at) / Fold change /veh CNN1 (11734310_a_at) / RFU VPS37D (11726825_at) / Fold change /veh VPS37D (11726825_at) / RFU C10orf10 (11716522_x_at) / Fold change /veh C10orf10 (11716522_x_at) / RFU KIR2DL2 /// KIR2DL4 /// KIR2DL5A /// KIR2DL5B /// KIR2DS1 /// KIR2DS2 /// KIR2DS3 /// KIR2DS4 /// KIR3DL3 /// KIR3DL3 /// KIR3DS1 (11738374_at) / Fold change /veh KIR2DL2 /// KIR2DL4 /// KIR2DL5A /// KIR2DL5B /// KIR2DS1 /// KIR2DS2 /// KIR2DS3 /// KIR2DS4 /// KIR3DL3 /// KIR3DL3 /// KIR3DS1 (11738374_at) / RFU C1QL1 (11718748_at) / Fold change /veh C1QL1 (11718748_at) / RFU TMPRSS4 (11747572_a_at) / Fold change /veh TMPRSS4 (11747572_a_at) / RFU HAMP (11756126_x_at) / Fold change /veh HAMP (11756126_x_at) / RFU RNFT2 (11725882_a_at) / Fold change /veh RNFT2 (11725882_a_at) / RFU NR4A2 (11747474_a_at) / Fold change /veh NR4A2 (11747474_a_at) / RFU ABCC12 (11746883_a_at) / Fold change /veh ABCC12 (11746883_a_at) / RFU TMEM136 (11760407_x_at) / Fold change /veh TMEM136 (11760407_x_at) / RFU CLDN22 /// WWC2 (11732394_at) / Fold change /veh CLDN22 /// WWC2 (11732394_at) / RFU HLA-DPB1 (11760878_x_at) / Fold change /veh HLA-DPB1 (11760878_x_at) / RFU SPINT1 (11716480_a_at) / Fold change /veh SPINT1 (11716480_a_at) / RFU GAP43 (11754022_s_at) / Fold change /veh GAP43 (11754022_s_at) / RFU A4GNT (11735810_at) / Fold change /veh A4GNT (11735810_at) / RFU PRB3 (11715151_x_at) / Fold change /veh PRB3 (11715151_x_at) / RFU TUBB4B (11761932_at) / Fold change /veh TUBB4B (11761932_at) / RFU CAPN14 (11732068_a_at) / Fold change /veh CAPN14 (11732068_a_at) / RFU TMCC2 (11721928_a_at) / Fold change /veh TMCC2 (11721928_a_at) / RFU IRGQ (11745062_a_at) / Fold change /veh IRGQ (11745062_a_at) / RFU FAM174B (11720279_a_at) / Fold change /veh FAM174B (11720279_a_at) / RFU TMPRSS4 (11748680_a_at) / Fold change /veh TMPRSS4 (11748680_a_at) / RFU FAM212B (11763350_a_at) / Fold change /veh FAM212B (11763350_a_at) / RFU PLEKHG5 (11743358_a_at) / Fold change /veh PLEKHG5 (11743358_a_at) / RFU ZSCAN30 (11745921_a_at) / Fold change /veh ZSCAN30 (11745921_a_at) / RFU CMKLR1 (11741424_a_at) / Fold change /veh CMKLR1 (11741424_a_at) / RFU LOC101060620 /// MAPK8IP1 (11723275_at) / Fold change /veh LOC101060620 /// MAPK8IP1 (11723275_at) / RFU SPTSSB (11747773_x_at) / Fold change /veh SPTSSB (11747773_x_at) / RFU PRSS12 (11739890_at) / Fold change /veh PRSS12 (11739890_at) / RFU BIN1 (11741810_x_at) / Fold change /veh BIN1 (11741810_x_at) / RFU WNT11 (11732464_a_at) / Fold change /veh WNT11 (11732464_a_at) / RFU C10orf10 (11716521_a_at) / Fold change /veh C10orf10 (11716521_a_at) / RFU C5orf56 (11738089_at) / Fold change /veh C5orf56 (11738089_at) / RFU CYB561 (11721691_x_at) / Fold change /veh CYB561 (11721691_x_at) / RFU ANKRD19P (11752326_a_at) / Fold change /veh ANKRD19P (11752326_a_at) / RFU OR2T12 /// OR2T33 /// OR2T8 (11738714_s_at) / Fold change /veh OR2T12 /// OR2T33 /// OR2T8 (11738714_s_at) / RFU VCAN (11748164_a_at) / Fold change /veh VCAN (11748164_a_at) / RFU JSRP1 (11732532_at) / Fold change /veh JSRP1 (11732532_at) / RFU KRTAP10-11 (11738290_x_at) / Fold change /veh KRTAP10-11 (11738290_x_at) / RFU MYO3A (11730013_a_at) / Fold change /veh MYO3A (11730013_a_at) / RFU EBF3 (11725865_a_at) / Fold change /veh EBF3 (11725865_a_at) / RFU CAMK2N1 (11719241_x_at) / Fold change /veh CAMK2N1 (11719241_x_at) / RFU C5orf56 (11738088_a_at) / Fold change /veh C5orf56 (11738088_a_at) / RFU OLFML3 (11715873_a_at) / Fold change /veh OLFML3 (11715873_a_at) / RFU LOC100653217 /// NTM (11731650_a_at) / Fold change /veh LOC100653217 /// NTM (11731650_a_at) / RFU MAPK11 (11762145_a_at) / Fold change /veh MAPK11 (11762145_a_at) / RFU FIZ1 (11724087_x_at) / Fold change /veh FIZ1 (11724087_x_at) / RFU OASL (11726364_x_at) / Fold change /veh OASL (11726364_x_at) / RFU SOX15 (11748057_x_at) / Fold change /veh SOX15 (11748057_x_at) / RFU CD79A (11719716_a_at) / Fold change /veh CD79A (11719716_a_at) / RFU HIST1H1D (11736915_at) / Fold change /veh HIST1H1D (11736915_at) / RFU CASKIN2 (11723855_a_at) / Fold change /veh CASKIN2 (11723855_a_at) / RFU LOC730098 (11760151_x_at) / Fold change /veh LOC730098 (11760151_x_at) / RFU OR4N2 (11742367_at) / Fold change /veh OR4N2 (11742367_at) / RFU PRRT2 (11749266_a_at) / Fold change /veh PRRT2 (11749266_a_at) / RFU SNX32 (11753110_a_at) / Fold change /veh SNX32 (11753110_a_at) / RFU CDHR5 (11726645_a_at) / Fold change /veh CDHR5 (11726645_a_at) / RFU RCAN1 (11760418_a_at) / Fold change /veh RCAN1 (11760418_a_at) / RFU FAM167A (11723789_a_at) / Fold change /veh FAM167A (11723789_a_at) / RFU FAM26E (11764081_at) / Fold change /veh FAM26E (11764081_at) / RFU ISYNA1 (11749810_s_at) / Fold change /veh ISYNA1 (11749810_s_at) / RFU ACY1 (11761880_at) / Fold change /veh ACY1 (11761880_at) / RFU 11764098_at / Fold change /veh 11764098_at / RFU SAMD14 (11745864_x_at) / Fold change /veh SAMD14 (11745864_x_at) / RFU NPB (11741838_a_at) / Fold change /veh NPB (11741838_a_at) / RFU TMPRSS6 (11731388_a_at) / Fold change /veh TMPRSS6 (11731388_a_at) / RFU KRTAP10-2 (11738614_at) / Fold change /veh KRTAP10-2 (11738614_at) / RFU ARHGAP8 /// PRR5-ARHGAP8 (11727945_x_at) / Fold change /veh ARHGAP8 /// PRR5-ARHGAP8 (11727945_x_at) / RFU KRTAP5-7 /// NADSYN1 (11734609_at) / Fold change /veh KRTAP5-7 /// NADSYN1 (11734609_at) / RFU RASL12 (11751679_a_at) / Fold change /veh RASL12 (11751679_a_at) / RFU CDKN2B (11736163_a_at) / Fold change /veh CDKN2B (11736163_a_at) / RFU PRF1 (11729649_at) / Fold change /veh PRF1 (11729649_at) / RFU, ZNF638 /// ZNF638-IT1 / Fold change vs veh, ZNF638 /// ZNF638-IT1 / RFU, PANK3 / Fold change vs veh, PANK3 / RFU, SH3YL1 / Fold change vs veh, SH3YL1 / RFU, ZEB2 / Fold change vs veh, ZEB2 / RFU, NRIP1 / Fold change vs veh, NRIP1 / RFU, PTTG1IP / Fold change vs veh, PTTG1IP / RFU, CAPN2 / Fold change vs veh, CAPN2 / RFU, MED14 / Fold change vs veh, MED14 / RFU, SNORA58 / Fold change vs veh, SNORA58 / RFU, C1orf63 / Fold change vs veh, C1orf63 / RFU, LRRFIP1 / Fold change vs veh, LRRFIP1 / RFU, NDUFAF7 / Fold change vs veh, NDUFAF7 / RFU, SLC12A2 / Fold change vs veh, SLC12A2 / RFU, IBTK / Fold change vs veh, IBTK / RFU, ESF1 / Fold change vs veh, ESF1 / Fold change vs veh, TMEM50B / RFU, TAOK1 / Fold change vs veh, TAOK1 / RFU, ACBD3 / Fold change vs veh, ACBD3 / RFU, TMA16 / Fold change vs veh, TMA16 / RFU, RWDD3 / Fold change vs veh, RWDD3 / RFU, BCAT1 / Fold change vs veh, BCAT1 / RFU, EDEM3 / Fold change vs veh, EDEM3 / RFU, TMEM33 / Fold change vs veh, TMEM33 / RFU, WDR75 / Fold change vs veh, WDR75 / RFU, AHCTF1 / Fold change vs veh, AHCTF1 / RFU, TFRC / Fold change vs veh, TFRC / RFU, ZDHHC17 / Fold change vs veh, ZDHHC17 / RFU, NOM1 / Fold change vs veh, NOM1 / RFU, ARL8B / Fold change vs veh, ARL8B / RFU, ZBTB11 / Fold change vs veh, ZBTB11 / RFU, TAMM41 / Fold change vs veh, TAMM41 / RFU, KIAA1704 /// LOC100996395 / Fold change vs veh, KIAA1704 /// LOC100996395 / RFU, ING1 / Fold change vs veh, ING1 / RFU, TRMT61B / Fold change vs veh, TRMT61B / RFU, FUBP3 / Fold change vs veh, FUBP3 / RFU, TP53 / Fold change vs veh, TP53 / RFU, TNKS2 / Fold change vs veh, TNKS2 / RFU, ZFP14 / Fold change vs veh, ZFP14 / RFU, ACTR2 / Fold change vs veh, ACTR2 / RFU, PPP3R1 / Fold change vs veh, PPP3R1 / RFU, PIK3R1 / Fold change vs veh, PIK3R1 / RFU, HNRNPA1 / Fold change vs veh, HNRNPA1 / RFU, RNF170 / Fold change vs veh, RNF170 / RFU, ZNF28 / Fold change vs veh, ZNF28 / RFU, RNGTT / Fold change vs veh, RNGTT / RFU, OGT / Fold change vs veh, OGT / RFU, BRD1 / Fold change vs veh, BRD1 / RFU, MARS / Fold change vs veh, MARS / RFU, ZNF655 / Fold change vs veh, ZNF655 / RFU, FAHD1 / Fold change vs veh, FAHD1 / RFU, BDP1 / Fold change vs veh, BDP1 / RFU, LRRCC1 / Fold change vs veh, LRRCC1 / RFU, ARID1A / Fold change vs veh, ARID1A / RFU, ZNF146 / Fold change vs veh, ZNF146 / RFU, ZNF330 / Fold change vs veh, ZNF330 / RFU, GPN3 / Fold change vs veh, GPN3 / RFU, C9orf123 / Fold change vs veh, C9orf123 / RFU, N4BP2L2 / Fold change vs veh, N4BP2L2 / RFU, ARFIP1 / Fold change vs veh, ARFIP1 / RFU, FAM179B / Fold change vs veh, FAM179B / RFU, BCL10 / Fold change vs veh, BCL10 / RFU, UHRF1BP1L / Fold change vs veh, UHRF1BP1L / RFU, BET1 / Fold change vs veh, BET1 / RFU, CNOT2 / Fold change vs veh, CNOT2 / RFU, ZNF268 / Fold change vs veh, ZNF268 / Fold change vs veh, ZNF507 / RFU, DGCR2 / Fold change vs veh, DGCR2 / RFU, WDSUB1 / Fold change vs veh, WDSUB1 / Fold change vs veh, HSP90B1 /// MIR3652 / RFU, ADSS / Fold change vs veh, ADSS / RFU, GK / Fold change vs veh, GK / RFU, ZNF148 / Fold change vs veh, ZNF148 / RFU, TAF9 / Fold change vs veh, TAF9 / RFU, SLC1A5 / Fold change vs veh, SLC1A5 / RFU, SLMO2 / Fold change vs veh, SLMO2 / RFU, ABCC4 / Fold change vs veh, ABCC4 / RFU, LOC101060439 /// RAP1B / Fold change vs veh, LOC101060439 /// RAP1B / RFU, RFX7 / Fold change vs veh, RFX7 / RFU, GTPBP10 / Fold change vs veh, GTPBP10 / RFU, CNEP1R1 / Fold change vs veh, CNEP1R1 / RFU, BIVM-ERCC5 /// ERCC5 / Fold change vs veh, BIVM-ERCC5 /// ERCC5 / RFU, ILF3 / Fold change vs veh, ILF3 / RFU 11762660_at / Fold change /veh 11762660_at / RFU VCAN (11757783_s_at) / Fold change /veh VCAN (11757783_s_at) / RFU DDX43 (11728927_at) / Fold change /veh DDX43 (11728927_at) / RFU KRT8 (11758188_x_at) / Fold change /veh KRT8 (11758188_x_at) / RFU NKD1 (11759106_at) / Fold change /veh NKD1 (11759106_at) / RFU SRD5A1 (11742802_a_at) / Fold change /veh SRD5A1 (11742802_a_at) / RFU TPSAB1 /// TPSB2 (11721975_s_at) / Fold change /veh TPSAB1 /// TPSB2 (11721975_s_at) / RFU GSTM3 (11746129_a_at) / Fold change /veh GSTM3 (11746129_a_at) / RFU IL23R (11737362_x_at) / Fold change /veh IL23R (11737362_x_at) / RFU TMEM51 (11727254_a_at) / Fold change /veh TMEM51 (11727254_a_at) / RFU PIWIL2 (11732686_x_at) / Fold change /veh PIWIL2 (11732686_x_at) / RFU ORM1 (11744905_x_at) / Fold change /veh ORM1 (11744905_x_at) / RFU CCDC152 (11743942_at) / Fold change /veh CCDC152 (11743942_at) / RFU ECM1 (11717891_a_at) / Fold change /veh ECM1 (11717891_a_at) / RFU IL23R (11748794_a_at) / Fold change /veh IL23R (11748794_a_at) / RFU TNFAIP8L3 (11732012_x_at) / Fold change /veh TNFAIP8L3 (11732012_x_at) / RFU MBOAT4 (11741988_at) / Fold change /veh MBOAT4 (11741988_at) / RFU 11764193_at / Fold change /veh 11764193_at / RFU TMEM53 (11763286_at) / Fold change /veh TMEM53 (11763286_at) / RFU MAGEB2 (11727129_at) / Fold change /veh MAGEB2 (11727129_at) / RFU TMEM200A (11744735_a_at) / Fold change /veh TMEM200A (11744735_a_at) / RFU CCDC152 (11751479_a_at) / Fold change /veh CCDC152 (11751479_a_at) / RFU FAM211A (11726209_a_at) / Fold change /veh FAM211A (11726209_a_at) / RFU RGS16 (11746705_a_at) / Fold change /veh RGS16 (11746705_a_at) / RFU VCAN (11755009_s_at) / Fold change /veh VCAN (11755009_s_at) / RFU RHOB (11743442_s_at) / Fold change /veh RHOB (11743442_s_at) / RFU RGS16 (11720943_a_at) / Fold change /veh RGS16 (11720943_a_at) / RFU RGS16 (11720944_at) / Fold change /veh RGS16 (11720944_at) / RFU, VPS4B / Fold change vs veh, VPS4B / RFU, CREB1 / Fold change vs veh, CREB1 / RFU, DNAJC13 / Fold change vs veh, DNAJC13 / RFU, GNAQ / Fold change vs veh, GNAQ / RFU, CDK5R1 / Fold change vs veh, CDK5R1 / RFU, ZRANB3 / Fold change vs veh, ZRANB3 / RFU, CUL4A / Fold change vs veh, CUL4A / RFU, CCNY / Fold change vs veh, CCNY / RFU, UFL1 / Fold change vs veh, UFL1 / RFU, COG3 / Fold change vs veh, COG3 / RFU, DIAPH2 / Fold change vs veh, DIAPH2 / RFU, SKA2 / Fold change vs veh, SKA2 / RFU, AFF3 / Fold change vs veh, AFF3 / RFU, LMF1 / Fold change vs veh, LMF1 / RFU, IPO11 / Fold change vs veh, IPO11 / RFU, DFFB / Fold change vs veh, DFFB / RFU, FOXP1 / Fold change vs veh, FOXP1 / RFU, CARD8 / Fold change vs veh, CARD8 / RFU, STRN3 / Fold change vs veh, STRN3 / RFU, ADK / Fold change vs veh, ADK / RFU, RASSF2 / Fold change vs veh, RASSF2 / RFU, WIPF1 / Fold change vs veh, WIPF1 / RFU, LARP1B / Fold change vs veh, LARP1B / RFU, RASA1 / Fold change vs veh, RASA1 / RFU, RB1 / Fold change vs veh, RB1 / RFU, PPFIA1 / Fold change vs veh, PPFIA1 / RFU, MAT2A / Fold change vs veh, MAT2A / RFU, CCT5 / Fold change vs veh, CCT5 / RFU, WDR92 / Fold change vs veh, WDR92 / RFU, CUX1 / Fold change vs veh, CUX1 / RFU, TTC7A / Fold change vs veh, TTC7A / RFU, TMEM135 / Fold change vs veh, TMEM135 / RFU, DEPTOR / Fold change vs veh, DEPTOR / RFU, CPM / Fold change vs veh, CPM / RFU, DNAJB6 / Fold change vs veh, DNAJB6 / RFU, CACNA2D3 / Fold change vs veh, CACNA2D3 / RFU, DTX4 / Fold change vs veh, DTX4 / RFU, TFCP2 / Fold change vs veh, TFCP2 / RFU, GMCL1 /// GMCL1P1 / Fold change vs veh, GMCL1 /// GMCL1P1 / RFU, AEBP2 / Fold change vs veh, AEBP2 / RFU, SNHG1 /// SNORD22 /// SNORD25 /// SNORD26 /// SNORD27 /// SNORD28 /// SNORD29 /// SNORD31 / Fold change vs veh, SNHG1 /// SNORD22 /// SNORD25 /// SNORD26 /// SNORD27 /// SNORD28 /// SNORD29 /// SNORD31 / Fold change (Aza/veh), C12orf56 (ProbeSet 11735607_a_at) / Fold change (ACY-1035/veh), C12orf56 (ProbeSet 11735607_a_at) / Fold change (Aza/veh), FGFR1OP (ProbeSet 11751329_s_at) / Fold change (ACY-1035/veh), FGFR1OP (ProbeSet 11751329_s_at) / Fold change (Aza/veh), VPS36 (ProbeSet 11739960_a_at) / Fold change (ACY-1035/veh), VPS36 (ProbeSet 11739960_a_at) / RFU SYPL1 (11715823_x_at) / Fold change /veh SYPL1 (11715823_x_at) / RFU IGFBP7 (11715501_s_at) / Fold change /veh IGFBP7 (11715501_s_at) / RFU REEP3 (11722064_at) / Fold change /veh REEP3 (11722064_at) / RFU IGLL1 (11728026_x_at) / Fold change /veh IGLL1 (11728026_x_at): dose or concentration left out as unconfirmed
Conditions: MV-4-11 cells, 48 hours

Nc1ncn([C@@H]2O[C@H](CO)[C@@H](O)[C@H]2O)c(=O)n1 [azacitidine]
RFU C10orf10 (11716521_a_at): 42.51 RFU
